The results in this text go back to patent publication US20080009448A1, “Peptide Derivative” (priority 2006, published 2008).

For assay [1], the system named is MSU induced knee osteoarthritis pain. Kind of assay: MSU induced knee osteoarthritis pain model, hind leg paw-pressure ratio. It counts as in vivo, rat. Set-up: key to AUC of time-course variation of anti-nociceptive activity: AUC of the time course of anti-nociceptive activity as % MPE. As to conditions: rat, MSU knee model; for ED50: range in parentheses. The protocol: Experimental animal, male SD type rats, weighing the body weight in the range of 170 to 190 g, were used for the studies. The animals had been kept under constant conditions (room temperature 23±1° C., humidity 52±2%, 12 hours light-and-dark cycle having light time 7:00 to 19:00 and dark time 19:00 to 7:00) until used for an experiment. The animals were fed the mouse solid diet (F2, Funabashi farm. Funabashi, Japan) with unrestricted tap water intake, and kept in captivity for at least more than two days in a laboratory.
Any test drugs were dissolved in Ringer's solution (Fuso Yakuhin) to be used.
MSU was suspended with the suspension solution (10% of polyoxyethylene sorbitan mono-oleate (Tween 80: Nakarai Tesk) as 0.1 g per 1 mL. The animal was anesthetized with diethyl ether and after the surface of its left hind leg knee joint was wiped with 70% ethanol cotton, a porous administration of the suspension solution above noted was conducted into the cavity of let hind leg knee joint.
Pressures to both hind leg paw were measured using a paw-pressure measurement apparatus and recorded. Measurement time at respective times was 4.5 seconds. Calculated paw-pressure ratio (ppr) is a value calculated by dividing the pressure on the left hind leg by the pressure on the right hind leg according to the measured pressures on both hind legs.
The anti-nociceptive effect was evaluated quantitatively by calculating % MPE (% of maximum possible effect) according to the following formula. [formula]
In the formula, ppr 0 and ppr 1 are respective paw-pressure ratios on both hind legs before and after administration. ED50 value of anti-nociceptive activity was calculated using GraphPad Prism data-graph processing software version 4.0, San Diego, Calif., USA.
The strength of anti-nociceptive activity was represented by calculating the time-course variation of anti-nociceptive activity AUC using GraphPad Prism noted above.
Paw-pressure was measured twice at 4 hours after administration to provide ppr by calculation and the average of those values was both hind leg paw-pressure ratio before the drug administration. After the measurement of both hind leg paw-pressure before the drug administration, 0.1 mL of Ringer's solution or a test drug in Ringer's solution per 100 g rat body weight was orally administered, and then a paw-pressure was measured once every unit time after the oral administration.
Statistical processing was conducted using GraphPad Prism. After the two-way layout dispersion analysis, the hazard-ratio of P<0.05 was decided to be a significant difference according to Bonferroni post-test. The hazard-ratios were distinguished into less than 5% (P<0.05) and less than 1% (P<0.01) and represented as “*” and “**” in the same manner conducted for the Tail-flick method.

The subject of assay [2] is heat nociceptive stimulation. As to the kind of experiment: Anti-nociceptive activity test, tail-flick method. It counts as in vivo, mouse. As to conditions: for ED50: Mus musculus; for ED50 / activity-peak time after the oral administration / activity-peak time after the subcutaneous administration / Oral ED50 / Subcutaneous ED50: mice; for ED50 / Oral ED50 / Subcutaneous ED50: at activity-peak time, parentheses = 95% confidence limit. The protocol:
(1) Experimental animal, male ddy mice (Japan SLC), weighing the body weight in the range of 22 to 25 g, were used for the studies. The animals had been kept under constant conditions (room temperature 22±2° C., humidity 55±5%, 12 hours light-and-dark cycle having light time 9:00 to 21:00 and dark time 21:00 to 9:00) until used for an experiment. The animals were fed the mouse solid diet (F2, Funabashi farm. Funabashi, Japan) with unrestricted tap water intake.
SS8225-01, 02, 03 04, 05, 06, 07 and 08 as examples and SS8225-09, 10, 11 and 12 as comparison examples were used as the administered drugs. […] In addition only Liger solution was administered as an experimental control. The animals were left for 60 minutes in the plastic cage to become familiar to the environment prior to the test in which measured a latent time for each mouse before drug administration in accordance with a tail-flick method noted below. Heat was radiated to a part of each mouse tail which is 2 cm from the end of its tail. Each of heat radiation periods before beginning of tail-flick was measured as a false pain threshold. Mice which responded to the stimulation within 2.5 to 3.5 seconds were pre-selected for the test. Administration solution under one administration condition for one kind of drug was administered to one experimental animal group including 10 mice. After the body weight of each mouse was measured, each volume of the administration solution was adjusted to be 0.1 mL/10 g of mouse body weight and then the solution was administered. The administration methods were two methods of subcutaneous administration (s. c.) and oral administration (p. o.). On subcutaneous administration, the administration solution of 0.1 mL per 10 g of body weight (0.1 mL/10 g) was injected into the back of the mouse using 27 gauge needle. On oral administration, the administration solution of 0.1 mL per 10 g of body weight (0.1 mL/10 g) was administered using an oral sonde.
Heat was radiated to a part of each mouse's tail of respective experimental group, which is 2 cm from the end of its tail, at 15, 30 and 60 minutes after the drug administration according to the preset measurement interval and a latent time until respective mouse swung its tail was measured as a false pain threshold value. The maximum stimulation period (cut-off-time) was set as 10 seconds to minimize the damage to the stimulation part. The anti-nociceptive effect was evaluated quantitatively by calculating % MPE (% of maximum possible effect) according to the following formula. [formula] T1: A latent time until beginning of tail-flick before respective drug administration (seconds) T2: A latent time until beginning of tail-flick after respective drug administration (seconds) Tc: A maximum stimulation period (cut-off-time)
The graphs (FIG. 1, FIG. 3, FIG. 5, FIG. 7, FIG. 9, FIG. 11, FIG. 13, FIG. 15, FIG. 17, FIG. 19, FIG. 21, FIG. 23, FIG. 25, FIG. 27, FIG. 29, FIG. 31, FIG. 33 and FIG. 35) showing a time-course variation of % MPE were created, in which a vertical axis is an average value with a standard error (means ±S. E. M.) obtained by calculation of % MPE of respective animals of 10 mice every administration condition of respective drugs and a horizontal axis is a time after administration. After treating % MPE data of each animal of experimental groups with respective doses and % MPE data of each animal of the experimental group with a control Ringer's solution at the same measurement time every drugs using the two-way layout dispersion analysis (two-way ANOVA), the hazard-ratio of P<0.05 was decided to be a significant difference according to Bonferroni post-test.
A lasting time of anti-nociceptive activity of each drug in the present description is the lasting time of anti-nociceptive activity under the dose condition providing the longest lasting time.
ED50 is represented in the unit of mg/Kg.
A general note: Hot-plate and tail-flick tests time the reaction to a heat stimulus.

Where [3] appears, read: s.c., doses of 0.5 mg/Kg and 0.25 mg/Kg.

Where two headings read alike, the source gives them in different places. Some results are limits rather than exact numbers.

The ED50 is the dose that gives a 50% effect, or the effect in half of the subjects.

Take `COc1ccc2c3c1O[C@H]1C(=O)CC[C@@]4(O)[C@@H](C2)N(C)CC[C@]314` [Oxycodone]: the “activity lasting-time, times longer than for morphine” value in assay [1] (oral) is given as 0.4 times. Further, in assay [1] (oral), the activity peak turned out to be 60 min. Further, the “AUC of time-course variation of anti-nociceptive activity” value is given as 2525 in assay [1] (oral 7.5 mg/kg), 6363 in assay [1] (oral 15 mg/kg) and 10562 in assay [1] (oral 30 mg/kg). Also, the ED50 in assay [1] (oral, %MPE, read-out: ED50 value at activity peak) stood at 10.3 mg/kg; in assay [1] (oral, read-out: ED50 of AUCs) it was 49.4 mg/kg; in assay [2] (po, p.o., read-out: Oral ED50), 7.82 mg/kg; in assay [2] (sc, s.c., read-out: Subcutaneous ED50), 1.21 mg/kg. For the same compound, the “anti-nociceptive activities, times stronger than for morphine” value in assay [1] (oral, from ED50 of AUCs) is “approximately 1.8 times”. The “anti-nociceptive activity lasting-times, times longer than for morphine” value in assay [1] (oral, stated after ED50 at activity peak) was determined as 3.6 times. In assay [1] (orally administered), the activity lasting-time came out at 120 min. In addition, in assay [2] (p.o.), the “activity-peak time after the oral administration” value was determined as 45 min. The “activity-peak time after the subcutaneous administration” value in assay [2] (s.c.) amounted to 30 min. Besides, the “lasting time of anti-nociceptive activity” value (“lasting time” for short) in assay [2] (p.o., dose of 20 mg/Kg) worked out at 5 h; in assay [2] (s.c., dose of 1.75 mg/Kg), 1.5 h.
In the case of “Iminoethyl-[DMT]-[D-Arg]-[Phe]-[N-MeLys]-OH [SS8225-12]”, the “Oral ED50” value was greater than 10 mg/kg in assay [2] (p.o.) and “over 10 mg/Kg” in assay [2] (p.o., listed as Comparison Example 6). For the same compound, the “Subcutaneous ED50” value was greater than 0.5 mg/kg in assay [2] (s.c.) and “over 0.5 mg/Kg” in assay [2] (s.c., listed as Comparison Example 6).
As to “Iminoethyl-[DMT]-[D-Arg]-[Phe]-[N-MeβAla]-NH2 [SS8225-01]”, the “Oral ED50” value in assay [2] (p.o.) was greater than 10 mg/kg. Further, in assay [2] (s.c.), the “activity-peak time after the subcutaneous administration” value amounted to 90 min and the “Subcutaneous ED50” value was 0.12 mg/kg. The “lasting time” value in assay [2] (setting [3]) was “not less than 7 hours”.
As to “Iminoethyl-[DMT]-[D-Met(O)]-[Phe]-[N-MeLys]-NH2 [SS8225-05]”, the “Oral ED50” value in assay [2] (p.o.) was greater than 10 mg/kg. In assay [2] (s.c.), the “activity-peak time after the subcutaneous administration” value is 120 min and the “Subcutaneous ED50” value is 0.10 mg/kg. Besides, the “lasting time” value in assay [2] (s.c., dose of 0.25 mg/Kg) was determined as 7 h.
Take “Iminoethyl-[DMT]-[D-Met(O)]-[Phe]-[N-MeβAla]-NH2 [SS8225-03]”: in assay [2] (p.o.), the “Oral ED50” value was greater than 10 mg/kg. In assay [2] (s.c.), the “activity-peak time after the subcutaneous administration” value was found to be 90 min and the “Subcutaneous ED50” value was 0.08 mg/kg. Moreover, the “lasting time” value in assay [2] (setting [3]) was 7 h.
As for “Iminoethyl-[Tyr]-[D-Arg]-[Phe]-[N-MeβAla]-NH2 [SS8225-02]”, in assay [2] (p.o.), the “activity-peak time after the oral administration” value is 240 min and the “Oral ED50” value was determined as 4.0 mg/kg. In assay [2] (s.c.), the “activity-peak time after the subcutaneous administration” value was 90 min and the “Subcutaneous ED50” value was 0.06 mg/kg. In addition, in assay [2] (p.o., dose of 10 mg/Kg), the “lasting time” value is 10 h. In addition, in assay [2] (s.c., dose of 0.125 mg/Kg), the “lasting time” value turned out to be 6 h.
Regarding “Iminoethyl-[Tyr]-[D-Met(O)]-[Phe]-[N-MeLys]-NH2 [SS8225-06]”, in assay [2] (p.o.), the “activity-peak time after the oral administration” value stood at 120 min and the “Oral ED50” value worked out at 6.02 mg/kg. Further, in assay [2] (s.c.), the “activity-peak time after the subcutaneous administration” value came out at 90 min and the “Subcutaneous ED50” value worked out at 0.18 mg/kg. Moreover, in assay [2] (p.o., dose of 10 mg/Kg), the “lasting time” value was “not less than 17 hours”. In addition, the “lasting time” value in assay [2] (s.c., dose of 0.25 mg/Kg) came to 5 h.
With “Iminoethyl-[Tyr]-[D-Met(O)]-[Phe]-[N-MeLys]-NHCH3 [SS8225-08]”, the “Oral ED50” value in assay [2] (p.o.) is greater than 10 mg/kg. Also, in assay [2] (s.c.), the “activity-peak time after the subcutaneous administration” value turned out to be 90 min and the “Subcutaneous ED50” value amounted to 0.1 mg/kg. The “lasting time” value in assay [2] (s.c., dose of 0.25 mg/Kg) is 5 h.
As to “Iminoethyl-[Tyr]-[D-Met(O)]-[Phe]-[N-MeLys]-OH [SS8225-11]”, the “Oral ED50” value in assay [2] (p.o.) was greater than 10 mg/kg; in assay [2] (p.o., listed as Comparison Example 5) it was “over 10 mg/Kg”. The “Subcutaneous ED50” value is greater than 0.5 mg/kg in assay [2] (s.c.) and “over 0.5 mg/Kg” in assay [2] (s.c., listed as Comparison Example 5).
As to “[DMT]-[D-Arg]-[Phe]-[N-MeLys]-NH2 [SS8225-09]”, the “Oral ED50” value in assay [2] (p.o.) is greater than 10 mg/kg. Besides, in assay [2] (p.o., listed as Comparison Example 3), the “Oral ED50” value is “over 10 mg/Kg”. For the same compound, in assay [2] (s.c.), the “activity-peak time after the subcutaneous administration” value stood at 90 min and the “Subcutaneous ED50” value worked out at 0.44 mg/kg. In assay [2] (s.c., dose of 1 mg/Kg), the “lasting time” value worked out at 5 h.
With “[DMT]-[D-Met(O)]-[Phe]-[N-MeLys]-NH2 [SS8225-10]”, the “Oral ED50” value in assay [2] (p.o.) is greater than 10 mg/kg. Besides, in assay [2] (p.o., listed as Comparison Example 4), the “Oral ED50” value is “over 10 mg/Kg”. Also, in assay [2] (s.c.), the “activity-peak time after the subcutaneous administration” value was determined as 90 min and the “Subcutaneous ED50” value came out at 0.28 mg/kg. In addition, the “lasting time” value in assay [2] (s.c., dose of 0.5 mg/Kg) is 6 h.
